Assay results from PubChem BioAssay AID192 (DTP/NCI, 2004).
“And” between values parts separate entries of the source, which are not always exact repeats. Identical values can stand only once. Inconclusive results and toxic doses are left out.

Test system: BDF1 mice, B16 melanoma ip, median survival T/C
Assay: NCI In Vivo Anticancer Drug Screen. Data for tumor model B16 Melanoma (intraperitoneal) in B6D2F1 (BDF1) mice
Conditions: endpoint: median survival time, higher = longer survival
Procedure: The antitumor activity of compounds was measured in mice bearing transplantable tumors. Survival or tumor size were measured and the results are expressed as the measurement made in the treated group (T) divided by the measurement made in the vehicle treated control group (C). The tumor model used in this assay is B16 Melanoma (intraperitoneal) in B6D2F1 (BDF1) mice

[1] = dose: 6.25 mg/kg/injection, schedule: Q01DX009 (ip), vehicle: saline
[2] = dose: 100.0 mg/kg/injection, schedule: Q01DX009 (ip), vehicle: saline
[3] = dose: 400.0 mg/kg/injection, schedule: Q01DX009 (ip), vehicle: saline
[4] = dose: 50.0 mg/kg/injection, schedule: Q01DX009 (ip), vehicle: Klucel (hydroxypropylcellulose) (HPC)
[5] = dose: 100.0 mg/kg/injection, schedule: Q01DX009 (ip), vehicle: Klucel (hydroxypropylcellulose) (HPC)
[6] = dose: 6.25 mg/kg/injection, schedule: Q01DX009 (ip), vehicle: Klucel (hydroxypropylcellulose) (HPC)
[7] = dose: 12.5 mg/kg/injection, schedule: Q01DX009 (ip), vehicle: Klucel (hydroxypropylcellulose) (HPC)
[8] = dose: 25.0 mg/kg/injection, schedule: Q01DX009 (ip), vehicle: Klucel (hydroxypropylcellulose) (HPC)

## CC[C@@]1(O)C[C@H](OC2CC(N(C)C)C(OC3CC(O)C(OC4CC(O)C(O)C(C)O4)C(C)O3)C(C)O2)c2c(cc3c(c2O)C(=O)c2c(O)ccc(O)c2C3=O)[C@H]1C(=O)OC (stereo not given in full)
dose: 0.03 mg/kg/injection, schedule: Q01DX001 (ip), vehicle: saline
  T/C: 105 % of control
dose: 0.05 mg/kg/injection, schedule: Q01DX001 (ip), vehicle: saline
  T/C: 118 % of control
dose: 0.1 mg/kg/injection, schedule: Q01DX001 (ip), vehicle: saline
  T/C: 119 % of control
dose: 0.25 mg/kg/injection, schedule: Q01DX009 (ip), vehicle: other
  T/C: 161 % of control
dose: 0.5 mg/kg/injection, schedule: Q01DX009 (ip), vehicle: other
  T/C: 161 % of control
dose: 0.8 mg/kg/injection, schedule: Q01DX001 (ip), vehicle: saline
  T/C: 163 % of control
dose: 1.0 mg/kg/injection, schedule: Q01DX009 (ip), vehicle: alcohol
  T/C: 210 % of control
dose: 1.0 mg/kg/injection, schedule: Q01DX009 (ip), vehicle: other
  T/C: 188 % of control
dose: 1.6 mg/kg/injection, schedule: Q01DX001 (ip), vehicle: saline
  T/C: 168 % of control
dose: 2.0 mg/kg/injection, schedule: Q01DX009 (ip), vehicle: alcohol
  T/C: 216 % of control
dose: 2.16 mg/kg/injection, schedule: Q01DX001 (ip), vehicle: water
  T/C: 106 % of control
dose: 3.6 mg/kg/injection, schedule: Q01DX001 (ip), vehicle: water
  T/C: 97 % of control
dose: 6.0 mg/kg/injection, schedule: Q01DX001 (ip), vehicle: water
  T/C: 100 % of control
dose: 10.0 mg/kg/injection, schedule: Q01DX001 (ip), vehicle: water
  T/C: 89 % of control

## CCCCS(=O)CC(CO)NC(=O)/C=C/c1c(C)[nH]c(=O)[nH]c1=O (stereo not given)
dose: 0.63 mg/kg/injection, schedule: Q01DX009 (ip), vehicle: water
  T/C: 104 % of control
dose: 1.25 mg/kg/injection, schedule: Q01DX009 (ip), vehicle: water
  T/C: 102 % of control
dose: 2.5 mg/kg/injection, schedule: Q01DX009 (ip), vehicle: water
  T/C: 104 % of control
dose: 5.0 mg/kg/injection, schedule: Q01DX009 (ip), vehicle: water
  T/C: 99 % of control
dose: 10.0 mg/kg/injection, schedule: Q01DX009 (ip), vehicle: water
  T/C: 95 % of control

## CCOC(=O)C1(C(=O)OCC)COC(=O)C1
dose: 16.0 mg/kg/injection, schedule: Q01DX009 (ip), vehicle: saline with Tween-80
  T/C: 101 % of control
dose: 32.0 mg/kg/injection, schedule: Q01DX009 (ip), vehicle: saline with Tween-80
  T/C: 101 % of control
dose: 64.0 mg/kg/injection, schedule: Q01DX009 (ip), vehicle: saline with Tween-80
  T/C: 101 % of control
dose: 128.0 mg/kg/injection, schedule: Q01DX009 (ip), vehicle: saline with Tween-80
  T/C: 104 % of control
dose: 256.0 mg/kg/injection, schedule: Q01DX009 (ip), vehicle: saline with Tween-80
  T/C: 97 % of control

## NC(N)=Nc1ccc(C(=O)Oc2ccc([N+](=O)[O-])cc2CN2CCCCC2)cc1
dose: 3.13 mg/kg/injection, schedule: Q01DX009 (ip), vehicle: saline
  T/C: 100 % of control
[1]
  T/C: 100 % of control

## COc1cc(NC(=O)CC(C)=O)cc(OC)c1OC
[2]
  T/C: 112 % of control
dose: 132.0 mg/kg/injection, schedule: Q01DX009 (ip), vehicle: saline with Tween-80
  T/C: 100 % of control
dose: 200.0 mg/kg/injection, schedule: Q01DX009 (ip), vehicle: saline with Tween-80
  T/C: 95 % of control
dose: 300.0 mg/kg/injection, schedule: Q01DX009 (ip), vehicle: saline with Tween-80
  T/C: 95 % of control
[3]
  T/C: 90 % of control

## N#CC(Nc1ccccc1)c1ccccc1 (stereo not given)
[4]
  T/C: 100 % of control
[5]
  T/C: 94 % of control

## CN(Cc1cnc2nc(N)nc(N)c2n1)c1c(Cl)cc(C(=O)NC(CCC(=O)O)C(=O)O)cc1Cl (stereo not given)
dose: 3.12 mg/kg/injection, schedule: Q01DX009 (ip), vehicle: Klucel (hydroxypropylcellulose) (HPC)
  T/C: 116 % of control
[6]
  T/C: 111 % of control
[7]
  T/C: 116 % of control
dose: 17.5 mg/kg/injection, schedule: Q01DX011 (ip), vehicle: saline
  T/C: 99 % of control
[8]
  T/C: 109 % of control
dose: 35.0 mg/kg/injection, schedule: Q01DX011 (ip), vehicle: saline
  T/C: 107 % of control
[4]
  T/C: 111 % of control

## CCCCCCC(=O)NC1=C(N2CC2)C(=O)C(NC(=O)CCCCCC)=C(N2CC2)C1=O
[6]
  T/C: 110 % of control
[7]
  T/C: 115 % of control and 120 % of control
[8]
  T/C: 100 % of control

## CC(NC(=O)C(F)(F)F)C(=O)O (stereo not given)
dose: 100.0 mg/kg/injection, schedule: Q04DX003 (ip), vehicle: saline
  T/C: 100 % of control
dose: 200.0 mg/kg/injection, schedule: Q04DX003 (ip), vehicle: saline
  T/C: 86 % of control

## N[C@H](C(=O)O)[C@H]1ON=C(Cl)[C@@H]1O
dose: 4.0 mg/kg/injection, schedule: Q01DX009 (ip), vehicle: saline
  T/C: 90 % of control
dose: 8.0 mg/kg/injection, schedule: Q01DX009 (ip), vehicle: saline
  T/C: 94 % of control
dose: 16.0 mg/kg/injection, schedule: Q01DX009 (ip), vehicle: saline
  T/C: 103 % of control
dose: 32.0 mg/kg/injection, schedule: Q01DX009 (ip), vehicle: saline
  T/C: 106 % of control
dose: 64.0 mg/kg/injection, schedule: Q01DX009 (ip), vehicle: saline
  T/C: 102 % of control and 115 % of control
dose: 128.0 mg/kg/injection, schedule: Q01DX009 (ip), vehicle: saline
  T/C: 101 % of control
dose: 256.0 mg/kg/injection, schedule: Q01DX009 (ip), vehicle: saline
  T/C: 107 % of control
dose: 512.0 mg/kg/injection, schedule: Q01DX009 (ip), vehicle: saline
  T/C: 109 % of control

## CC1(C)N=C(N)N=C(N)N1c1cccc(OCCOc2ccc([N+](=O)[O-])cc2)c1
[8]
  T/C: 101 % of control
[4]
  T/C: 102 % of control
[5]
  T/C: 100 % of control
dose: 200.0 mg/kg/injection, schedule: Q01DX009 (ip), vehicle: Klucel (hydroxypropylcellulose) (HPC)
  T/C: 102 % of control

## CN(C)CCCN1Cc2ccccc2Cc2ccccc21
[1]
  T/C: 105 % of control
dose: 12.5 mg/kg/injection, schedule: Q01DX009 (ip), vehicle: saline
  T/C: 103 % of control
dose: 25.0 mg/kg/injection, schedule: Q01DX009 (ip), vehicle: saline
  T/C: 111 % of control
dose: 50.0 mg/kg/injection, schedule: Q01DX009 (ip), vehicle: saline
  T/C: 101 % of control
[2]
  T/C: 107 % of control

## O=Cc1ccc(/C=C2\C=Cc3ccccc32)cc1
dose: 100.0 mg/kg/injection, schedule: Q01DX009 (ip), vehicle: saline with Tween-80
  T/C: 97 % of control

## COc1cccc(/C=N/NC(=O)c2ccccc2N2CCCC2)c1O
dose: 12.5 mg/kg/injection, schedule: Q01DX009 (ip), vehicle: olive oil, sesame oil, peanut oil
  T/C: 89 % of control
dose: 50.0 mg/kg/injection, schedule: Q01DX009 (ip), vehicle: olive oil, sesame oil, peanut oil
  T/C: 89 % of control
dose: 100.0 mg/kg/injection, schedule: Q01DX009 (ip), vehicle: olive oil, sesame oil, peanut oil
  T/C: 87 % of control
dose: 200.0 mg/kg/injection, schedule: Q01DX009 (ip), vehicle: olive oil, sesame oil, peanut oil
  T/C: 86 % of control
dose: 400.0 mg/kg/injection, schedule: Q01DX009 (ip), vehicle: olive oil, sesame oil, peanut oil
  T/C: 96 % of control

## O=C(O)CCC1CCC(=O)OC1=O (stereo not given)
[2]
  T/C: 112 % of control
dose: 200.0 mg/kg/injection, schedule: Q01DX009 (ip), vehicle: saline
  T/C: 113 % of control
[3]
  T/C: 113 % of control

## CC1(c2ccc(Cl)cc2)OC(=O)C(=Cc2ccc([N+](=O)[O-])s2)C(=O)O1 (stereo not given)
dose: 6.25 mg/kg/injection, schedule: Q01DX009 (ip), vehicle: saline with Tween-80
  T/C: 92 % of control
dose: 12.5 mg/kg/injection, schedule: Q01DX009 (ip), vehicle: saline with Tween-80
  T/C: 87 % of control

## C=C1CCN(c2cccc(Cl)c2)C1=O
dose: 1.0 mg/kg/injection, schedule: Q01DX009 (ip), vehicle: saline + alcohol
  T/C: 107 % of control
dose: 2.0 mg/kg/injection, schedule: Q01DX009 (ip), vehicle: saline + alcohol
  T/C: 117 % of control
dose: 4.0 mg/kg/injection, schedule: Q01DX009 (ip), vehicle: saline + alcohol
  T/C: 101 % of control and 115 % of control
dose: 8.0 mg/kg/injection, schedule: Q01DX009 (ip), vehicle: saline + alcohol
  T/C: 101 % of control
dose: 16.0 mg/kg/injection, schedule: Q01DX009 (ip), vehicle: saline + alcohol
  T/C: 95 % of control
dose: 32.0 mg/kg/injection, schedule: Q01DX009 (ip), vehicle: saline + alcohol
  T/C: 96 % of control
dose: 64.0 mg/kg/injection, schedule: Q01DX009 (ip), vehicle: saline + alcohol
  T/C: 100 % of control
